Results from patent US8937155B2 (priority 2010, dated 2015).
Values after ≈ are worked out from the molar mass of the structure shown. “Also recorded” adds a separate entry of the source. Ends that are not written are not given here. Peptide text beside a SMILES is read from it.

Key:
in vitro [1] = settings: mouse
Description: (§2) The serum stabilities of all peptides were determined in pure and 25% (v/v) aqueous pooled mouse serum (PAA Laboratories GmbH, Pasching, Austria) (Hoffmann R, Vasko M, & Otvos L. Serum stability of phosphopeptides. Analytica Chimica Acta 352: 319-25, 1997). Peptides were dissolved in serum at a final concentration of 75 μg/mL and incubated at 37° C. Aliquots taken in triplicates after 0, 30, 60, 120 and 240 min were precipitated by addition of trichloroacetic acid to a final concentration of 3% (v/v). After 10 minutes on ice, the samples were centrifuged, the supernatant neutralized with sodium hydroxide solution (1 mol/L) and stored at −20° C. The samples were analyzed on the analytical Jupiter C18-column using a linear aqueous acetonitrile or methanol gradient containing 0.1% (v/v) TFA. The metabolites were identified by MALDI-TOF-MS.

M. luteus DSM 10240 = assay type: cell-based, Micrococcus luteus; settings: DSM 10240, 2 h
Description: (§1) Minimal inhibitory concentrations were determined in triplicates by a liquid broth microdilution assay in sterile 96-well plates (Greiner Bio-One GmbH, Frickenhausen, Germany) using a total volume of 100 μL per well (Amsterdam, D. Susceptibility testing of antimicrobials in liquid media in Antibiotics in laboratory medicine (ed. Lorian, V.) 52-111 (Lippincott Williams & Wilkins, Baltimore, 1996)). Aqueous peptide solutions (1 mg/mL) were serially two-fold diluted in 1% tryptic soy broth (TSB). A typical dilution series ranged from 128 μg/mL to 0.5 μg/mL in eight steps. Overnight cultures of bacteria were diluted with 1% TSB to 1.5×10^7 cells/mL (Klebsiella pneumoniae DSM 681, Escherichia coli BL21AI and DSM 10233) and 4×10^7 cells/mL (Micrococcus luteus ATCC 10240). Fifty μL of these solutions were added to each well gaining a starting cell concentration of 7.5×10^5 cells/well and 2×10^6 cells/well, respectively. […]

in vitro [2] = settings: for stability relative to the original oncocin sequence: bacterial lysate of E. coli BL21 AI; for half-life at 150 μg/mL: pH 7.4
Description: Bacteria (E. coli BL21 AI) were cultured over night at 37° C. in nutrient broth (Carl Roth GmbH & Co. KG, Karlsruhe, Germany). This suspension was centrifuged (5000 rpm, 4° C.) in a AVANTI® J=20-XP centrifuge using a JLA-10500 rotor (Beckman coulter, Fullerton, USA). The pellet was washed with phosphate buffered saline (PBS, 8.7 mmol/L Na2HPO4, 1.2 mmol/L KH2PO4, 150 mmol/L NaCl, pH 7.4) and centrifuged in an ALLEGRA® 21 R centrifuge (Beckman Coulter, 3000 rpm, 4° C., 20 min). The pellet was resuspended in PBS (60 mg/mL) and lysed on ice using ultra sonic (2×2 min with 2 s on/2 s off) applied via micro tip (750 W, 40% amplitude; Fisher Biobiock Scientific, Illkirch, France). One mL aliquots were centrifuged (15400 rpm, 20 min, 4° C.) and the supernatant was stored at −80′C.
The peptide concentration was determined with a Bradford protein assay (Bradford M M. Rapid and Sensitive Method for Quantitation of Microgram Quantities of Protein Utilizing Principle of Protein-Dye Binding. Analytical Biochemistry 72: 248-54, 1976). Briefly, 0.01% (w/v) Coomassie brilliant blue G250 was dissolved in 5% aqueous ethanol containing 8.5% orthophosphoric (Bradford reagent). The mixture was incubated first at 60° C. for 1 h and then at room temperature for 12 h. After filtration 200 μl of the reagent were mixed with 50 μl sample solution in a polystyrole 96-well plate and incubated for 15 min in the dark. The absorption was measured at 595 nm against the negative control (50 μl PBS+200 μL Bradford reagent). The protein concentration was calculated from a calibration curve of bovine serum albumin.
The stability against bacterial proteases was determined in a bacterial lysate of E. coli BL21 AI adjusted with PBS to a protein concentration of 0.5 mg/mL. Peptides were dissolved in the bacterial lysate at a final concentration of 150 μg/mL and incubated at 37° C. Aliquots were taken in triplicates after 0, 30, 60, 120, and 240 min and precipitated by addition of trichloroacetic acid to a final concentration of 3% (v/v). After 10 minutes on ice, the samples were centrifuged, the supernatant neutralized with sodium hydroxide solution (1 mol/L) and stored at −20° C. The samples were analyzed by RP-HPLC (Jupiter C18-column) using a linear aqueous acetonitrile or methanol gradient containing 0.1% (v/v) TFA. Metabolites were identified by MALDI-TOF-MS.

E. coli BL21 AI = assay: MIC, liquid broth microdilution assay; assay type: cell-based, Escherichia coli; settings: 1% TSB, 37° C., 20±2 h
Description: Minimal inhibitory concentrations were determined in triplicates by a liquid broth microdilution assay in sterile 96-well plates (Greiner Bio-One GmbH, Frickenhausen, Germany) using a total volume of 100 μL per well (Amsterdam, D. Susceptibility testing of antimicrobials in liquid media in Antibiotics in laboratory medicine (ed. Lorian, V.) 52-111 (Lippincott Williams & Wilkins, Baltimore, 1996)). Aqueous peptide solutions (1 mg/mL) were serially two-fold diluted in 1% tryptic soy broth (TSB). A typical dilution series ranged from 128 μg/mL to 0.5 μg/mL in eight steps. Overnight cultures of bacteria were diluted with 1% TSB to 1.5×10^7 cells/mL (Klebsiella pneumoniae DSM 681, Escherichia coli BL21AI and DSM 10233) and 4×10^7 cells/mL (Micrococcus luteus ATCC 10240). Fifty μL of these solutions were added to each well gaining a starting cell concentration of 7.5×10^5 cells/well and 2×10^6 cells/well, respectively. The plates were incubated at 37° C. and the absorbance of each well was measured after 20±2 h at 595 nm.

[3] = full mouse serum
Description: as §2

E. coli DSM 10233 = assay type: cell-based, Escherichia coli; settings: DSM 10233, 2 h
Description: as §1

K pneumoniae DSM 681 = assay type: cell-based, Klebsiella pneumoniae; settings: DSM 681, 2 h
Description: as §1

[4] = full mouse serum (pooled mouse serum, PAA Laboratories); settings: 37° C., up to 480 min
[5] = bacterial lysate of E. coli BL21 AI; settings: 37° C., up to 240 min

| Molecule | half-life at 75 μg/mL (in vitro [1]; full (pure) pooled mouse serum) [h] | minimal inhibitory concentration (MIC) M. luteus DSM 10240 (M. luteus DSM 10240) [µg/mL] | stability relative to the original oncocin sequence (in vitro [2]) | half-life at 150 μg/mL (in vitro [2]; cells or culture medium) [h] | minimal inhibitory concentration (MIC) E. coli BL21 AI (E. coli BL21 AI) [µg/mL] | starting derivative not degraded after 480 min [3] | minimal inhibitory concentration (MIC) E. coli DSM 10233 (E. coli DSM 10233) [µg/mL] | minimal inhibitory concentration (MIC) K pneumoniae DSM 681 (K pneumoniae DSM 681) [µg/mL] | minimal inhibitory concentration (MIC) E. coli BL21 AI (E. coli BL21 AI; listed as 3) [µg/mL] | remaining at 8 h, 75 μg/mL (in vitro [1]; full (pure, undiluted) pooled mouse serum) [%] | cleaved bond [4] | cleaved bond [5] | half-life at 75 μg/mL (in vitro [1]; pure (full) pooled mouse serum) [h] | half-life at 150 μg/mL (in vitro [2]; Escherichia coli) [h] |
| --- | --- | --- | --- | --- | --- | --- | --- | --- | --- | --- | --- | --- | --- | --- |
| CC(C)C[C@H](NC(=O)[C@H](Cc1ccc(O)cc1)NC(=O)[C@@H]1CCCN1C(=O)[C@@H]1CCCN1C(=O)[C@H](CCCCN)NC(=O)[C@H](CC(=O)O)NC(=O)[C@@H](N)C(C)C)C(=O)N1CCC[C@H]1C(=O)N[C@@H](CCCNC(=N)N)C(=O)N1CCC[C@H]1C(=O)N[C@@H](CCCNC(=N)N)C(=O)N1CCC[C@H]1C(=O)N1CCC[C@H]1C(=O)N[C@@H](CCCNC(=N)N)C(=O)N[C@@H](CCCN)C(=O)N[C@H](C(=O)N[C@@H](Cc1ccc(O)cc1)C(=O)N[C@@H](CC(N)=O)C(=O)N[C@@H](CCCN)C(N)=O)[C@@H](C)O [SEQ ID NO. 2, VDKPPYLPRPRPPROTYNO-NH2] (HELM PEPTIDE1{V.D.K.P.P.Y.L.P.R.P.R.P.P.R.[Orn].T.Y.N.[Orn].[am]}$$$$V2.0; N-terminus assumed) | 2 | 8 (≈ 3.49 µM) | at least three times more stable | 2.83 | 4 (≈ 1.74 µM) | – | – | – | – | – | – | – | – | – |
| CC(C)C[C@H](NC(=O)[C@H](Cc1ccc(O)cc1)NC(=O)[C@@H]1CCCN1C(=O)[C@@H]1CCCN1C(=O)[C@H](CCCCN)NC(=O)[C@H](CC(=O)O)NC(=O)[C@@H](N)C(C)C)C(=O)N1CCC[C@H]1C(=O)N[C@@H](CCCNC(=N)N)C(=O)N1CCC[C@H]1C(=O)N[C@@H](CCCNC(=N)N)C(=O)N1CCC[C@H]1C(=O)N1C[C@H](O)C[C@H]1C(=O)N[C@@H](CCCNC(=N)N)C(=O)N1C[C@H](O)C[C@H]1C(=O)N[C@H](C(=O)N[C@@H](Cc1ccc(O)cc1)C(=O)N[C@@H](CC(N)=O)C(=O)N[C@@H](CCCN)C(N)=O)[C@@H](C)O [SEQ ID NO. 3, VDKPPYLPRPRP-4tHyp-R-4tHyp-TYNO-NH2] (HELM PEPTIDE1{V.D.K.P.P.Y.L.P.R.P.R.P.[Hyp].R.[Hyp].T.Y.N.[Orn].[am]}$$$$V2.0; N-terminus assumed) | > 8 | 32 (≈ 13.9 µM) | at least three times more stable | 4 | 2 to 4 | (60%) | 2 to 4 | 8 (≈ 3.47 µM) | 4 (≈ 1.73 µM) | – | – | – | – | – |
| CC[C@H](C)[C@H](NC(=O)[C@H](CCCN)NC(=O)[C@H](CCCNC(=N)N)NC(=O)[C@@H]1CCCN1C(=O)[C@@H]1CCCN1C(=O)[C@H](CCCNC(=N)N)NC(=O)[C@@H]1CCCN1C(=O)[C@H](CCCNC(=N)N)NC(=O)[C@@H]1CCCN1C(=O)[C@H](CC(C)C)NC(=O)[C@H](Cc1ccc(O)cc1)NC(=O)[C@@H]1CCCN1C(=O)[C@@H]1CCCN1C(=O)[C@H](CCCCN)NC(=O)[C@H](CC(=O)O)NC(=O)[C@@H](N)C(C)C)C(=O)N[C@@H](Cc1ccc(O)cc1)C(=O)N[C@@H](CC(N)=O)C(=O)N[C@@H](CCCN)C(N)=O [SEQ ID NO. 4, VDKPPYLPRPRPPROIYNO-NH2, reference compound] (HELM PEPTIDE1{V.D.K.P.P.Y.L.P.R.P.R.P.P.R.[Orn].I.Y.N.[Orn].[am]}$$$$V2.0; N-terminus assumed) | 2.92 | 8 (≈ 3.47 µM) | – | – | 8 (≈ 3.47 µM) | – | – | – | – | 60 | – | – | – | – |
| VDKPPYLPRPRPPRRIYNR-NH2 | – | – | – | – | – | – | – | – | – | – | Arg15-Ile16, major; also recorded: Asn18-Arg19, major | Pro10-Arg11; also recorded: Pro13-Arg14; also recorded: Arg15-Ile16 | – | – |
| VDKPPYLPRPRPPRRIYNR-NH2 [SEQ ID NO. 1, VDKPPYLPRPRPPRRIYNR-NH2, reference compound] | – | 8 | – | – | 4 | – | 16 | 4 | – | – | – | – | 0.5 | 1 |
